Broadly, the IC50 is the concentration at which inhibition is half-maximal. Low readings indicate greater potency in that assay, high ones weaker potency in that assay.

Ten molecules from ChEMBL document CHEMBL4396975, “Sodium Channel Modulators and Their Method of Use” (ACS Med Chem Lett, 2019) can be followed below.

The target of this experiment is Sodium channel protein type 9 subunit alpha (Homo sapiens, UniProt Q15858). In words: Inhibition of human Nav1.7 expressed in HEK293 cells by automated electrophysiological patch clamp assay. It is filed as cell-based.
Sodium channel protein type 9 subunit alpha, sequence (Q15858 whole entry): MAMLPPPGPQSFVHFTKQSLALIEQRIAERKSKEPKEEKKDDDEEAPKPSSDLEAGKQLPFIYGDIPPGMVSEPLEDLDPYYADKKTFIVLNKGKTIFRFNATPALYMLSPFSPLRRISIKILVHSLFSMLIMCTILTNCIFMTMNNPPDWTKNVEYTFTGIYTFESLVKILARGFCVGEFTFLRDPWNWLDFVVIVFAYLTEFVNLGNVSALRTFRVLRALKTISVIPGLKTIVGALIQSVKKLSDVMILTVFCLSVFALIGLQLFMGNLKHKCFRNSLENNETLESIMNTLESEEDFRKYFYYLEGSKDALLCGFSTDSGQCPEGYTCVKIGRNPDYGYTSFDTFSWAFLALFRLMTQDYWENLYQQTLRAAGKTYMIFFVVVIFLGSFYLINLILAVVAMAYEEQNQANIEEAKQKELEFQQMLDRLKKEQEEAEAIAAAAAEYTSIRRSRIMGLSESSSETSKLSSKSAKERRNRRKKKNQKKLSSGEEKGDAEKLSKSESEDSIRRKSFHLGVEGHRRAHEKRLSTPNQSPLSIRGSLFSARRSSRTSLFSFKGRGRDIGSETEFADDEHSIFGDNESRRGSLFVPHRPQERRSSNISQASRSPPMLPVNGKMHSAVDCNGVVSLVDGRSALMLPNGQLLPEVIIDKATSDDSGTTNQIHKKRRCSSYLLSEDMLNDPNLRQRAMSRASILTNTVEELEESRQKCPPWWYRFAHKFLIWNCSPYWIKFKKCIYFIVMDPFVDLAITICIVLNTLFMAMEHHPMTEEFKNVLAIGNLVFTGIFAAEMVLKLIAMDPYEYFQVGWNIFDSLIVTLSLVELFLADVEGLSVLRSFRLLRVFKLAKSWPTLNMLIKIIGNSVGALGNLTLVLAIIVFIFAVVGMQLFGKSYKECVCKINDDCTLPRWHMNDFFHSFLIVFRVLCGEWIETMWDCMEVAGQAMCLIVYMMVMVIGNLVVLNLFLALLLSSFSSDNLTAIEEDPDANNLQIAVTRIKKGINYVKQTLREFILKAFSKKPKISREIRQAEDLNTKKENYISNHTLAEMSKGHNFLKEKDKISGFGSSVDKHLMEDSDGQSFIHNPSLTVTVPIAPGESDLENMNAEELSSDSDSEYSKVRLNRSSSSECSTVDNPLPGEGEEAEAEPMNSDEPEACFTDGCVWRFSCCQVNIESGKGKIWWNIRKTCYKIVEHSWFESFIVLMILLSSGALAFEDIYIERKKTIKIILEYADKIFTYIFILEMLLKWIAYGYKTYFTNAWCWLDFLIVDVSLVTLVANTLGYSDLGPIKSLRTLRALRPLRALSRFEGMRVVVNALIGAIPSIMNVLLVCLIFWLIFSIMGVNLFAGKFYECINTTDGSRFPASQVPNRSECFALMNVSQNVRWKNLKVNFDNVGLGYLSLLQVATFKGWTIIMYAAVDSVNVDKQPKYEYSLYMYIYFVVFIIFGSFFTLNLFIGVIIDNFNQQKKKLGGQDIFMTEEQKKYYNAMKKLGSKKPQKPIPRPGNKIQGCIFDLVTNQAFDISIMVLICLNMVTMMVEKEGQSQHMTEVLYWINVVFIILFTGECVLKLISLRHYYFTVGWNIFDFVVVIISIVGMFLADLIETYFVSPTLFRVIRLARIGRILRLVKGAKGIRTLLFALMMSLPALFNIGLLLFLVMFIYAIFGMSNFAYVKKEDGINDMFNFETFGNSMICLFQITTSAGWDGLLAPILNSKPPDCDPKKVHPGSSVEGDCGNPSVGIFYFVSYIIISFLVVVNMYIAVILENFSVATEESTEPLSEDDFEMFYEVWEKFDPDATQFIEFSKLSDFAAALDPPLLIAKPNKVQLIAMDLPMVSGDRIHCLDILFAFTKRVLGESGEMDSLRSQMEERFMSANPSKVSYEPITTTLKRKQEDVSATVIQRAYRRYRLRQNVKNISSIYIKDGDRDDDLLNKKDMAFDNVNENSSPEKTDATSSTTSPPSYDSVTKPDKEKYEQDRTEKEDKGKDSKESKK
With `NC(=O)[C@@H]1CC[C@H](c2ccc(Oc3nnnn3-c3cc(F)ccc3OC(F)(F)F)cc2)N1`, the 50% inhibitory concentration (IC50) came out at 570 nM.
To `Cc1ccc(Cl)cc1-n1nnnc1Oc1ccc([C@H]2CC[C@@H](C(N)=O)N2)cc1` belongs 720 nM.
Then `NC(=O)[C@@H]1CC[C@H](c2ccc(Oc3nnnn3-c3ccccc3OC(F)(F)F)cc2)N1`, with 1100 nM; and `Cc1cccc(C)c1-n1nnnc1Oc1ccc([C@H]2CC[C@@H](C(N)=O)N2)cc1`, with 890 nM.
`CN1[C@@H](c2ccc(Oc3nnnn3-c3ccccc3C(F)(F)F)cc2)CC[C@H]1C(N)=O` returned a concentration for half-maximal inhibition (IC50) of 1800 nM.
Then `CN(C)C(=O)[C@@H]1CC[C@H](c2ccc(Oc3nnnn3-c3ccccc3OC(F)(F)F)cc2)N1`, with 1800 nM; and `NC(=O)[C@@H]1CC[C@H](c2ccc(Oc3nnnn3-c3cc(Cl)ccc3OC(F)(F)F)cc2)N1`, with 680 nM; and `Cc1cc(C(F)(F)F)ccc1-n1nnnc1Oc1ccc([C@H]2CC[C@@H](C(N)=O)N2)cc1`, with 1200 nM.
Then `COc1ccc(C)c(-n2nnnc2Oc2ccc([C@H]3CC[C@@H](C(N)=O)N3)cc2)c1`, with 1100 nM; and `CC(C)(C)c1ccccc1-n1nnnc1Oc1ccc([C@H]2CC[C@@H](C(N)=O)N2)cc1`, with 1500 nM.
